From paper PMC7145288, “New Peptide-Based Pharmacophore Activates 20S Proteasome” (Molecules, 2020)
Square brackets hold non-standard residues; d marks the D form. Peptide text beside a SMILES is read from it. Oic = O=C(O)[C@@H]1C[C@@H]2CCCC[C@@H]2N1; dOic = O=C(O)[C@H]1C[C@H]2CCCC[C@H]2N1; Tic = O=C(O)[C@@H]1Cc2ccccc2CN1

Legend:
[1] = test system: proteasome ChT-L activity in SK-N-SH (ATCC HTB-11) cell lysates; experiment: ChT-L proteasome activity in lysates of treated SK-N-SH cells; format: cell-based, human
Procedure: […] The content of live cells was determined by the Trypan Blue-exclusion assay. The cells were harvested, washed twice in PBS, resuspended in dilution buffer (see above) and stored in −80 °C. To prepare lysates the thawed preparations were vortexed with glass beads and centrifuged for 5 min 5000× g (4 °C). The supernatant was centrifuged for 20 min 14,000× g (4 °C). The resulting supernatant—“crude lysate” was diluted to 1 mg/mL of total protein with dilution buffer. 1 μg of lysate per assay (reaction buffer: 50 mM Tris/HCl pH 8, 0.1 mM MgCl2, 0.2 mM ATP, 0.1 mM dithiothreitol, 50 μM Suc-LLVY-AMC) was used for determination of ChT-L activity in a 96-well format, as above.

[2] = test system: 20S core proteasome α face pockets; experiment: Competition with Rpt C-terminal tail peptides for α face pockets (ChT-L activity); format: biochemical, human; conditions: Rpt peptide 1 μM added before TAT peptide; for Competition with Rpt tail peptides (in words, from radar plot scores): Rpt2 α3/α4, Rpt3 α1/α2, Rpt5 α5/α6, Rpt6 α2/α3 pocket, three to six experiments; for Enhanced (synergistic) activation with Rpt tail peptides (in words): Rpt5 or Rpt6 tails
Text: As mentioned above, the binding pockets on the α face accept “anchors” from natural protein ligands of the 20S core. […] The 10-residue Rpt-derived C-terminal “tail” peptides (“Rpt peptides”) can be used as competitors with the Rpt subunits or with small allosteric ligands. Importantly, the Rpt peptides interject between the subunits with their C-termini, whereas TAT peptides, according to the modeling, use their N-termini for this purpose. To test the specificity of interactions between TAT compounds and the α face, we performed competition experiments. The 20S core was challenged with selected TAT compounds after treatment with Rpt peptides. We selected peptides of Rpt2 ([…]), Rpt3 ([…]), Rpt5 ([…]) and Rpt6 […]) subunits, docking in α3/α4, α1/α2, α5/α6 and α2/α3 pockets, respectively. Tails of Rpt2, 3, and 5 display the canonical HbYX motif, whereas the LeuTrpLys C-terminus of Rpt6 may be considered “pseudo-HbYX”, with a bulky Trp replacing Tyr. Results of the competition experiments are presented as radar plots in Figure 7. […] This pocket also emerged as the major binding site for (1) and (8). However, these compounds likely weakly competed with the Rpt2 tail for binding to the α3/α4 pocket as well. The α3/α4 pocket seemed to be favored by (6). […] These complex patterns point at the importance of allosteric effects between the α face ligands, the gate and the catalytic chamber.
Figure 7 TAT1 derivatives competed with selected C-terminal tails of Rpt (Regulatory Particle ATPases) subunits for binding to specific α face pockets. The scores presented in radar plots were calculated as ((relative activation by the [x] and Rpt tail)-(theoretical sum of activation by [x] and Rpt tail))/(theoretical sum of activation by [x] and Rpt tail), where [x] represent any TAT peptide. […] The positive scores for combinations of selected compounds with Rpt5 or Rpt6 tails indicated a presumed synergy in activation of the core. Average scores derived from three to six experiments are presented. The competition effects were statistically significant (at least p < 0.05) for Rpt3 peptide and (1) and (8), as well as for Rpt2 peptide and (6).
Human housekeeping core (20S) proteasome purified from erythrocytes was purchased from Boston Biochem, Inc. (Cambridge, MA) or from Enzo Life Sciences, Inc. (Farmingdale, NY). Multiple batches of the proteasomes were used and performed reproducibly. The stock proteasome was diluted to 0.2 mg/mL working solution in “dilution buffer” (50 mM Tris/HCl, pH 8, 20% glycerol). The following model peptide substrates, all releasing fluorescent 7-amino-4-methylcoumarin (AMC) reporter group after cleavage, were used: succinyl-LeuLeuValTyr-AMC (for the ChT-L peptidase; SucLLVY-AMC; Bachem Bioscience Inc., Philadelphia, PA), butoxycarbonyl-LeuArgArg-AMC (T-L; Bachem Bioscience Inc., Philadelphia, PA) and carbobenzoxy- LeuLeuGlu-AMC (PGPH; Enzo Life Sciences Inc., Farmingdale, NY). The substrates were used at concentration of 50 μM (ChT-L) or 100 μM (T-L, PGPH). Free AMC (Sigma-Aldrich, St. Louis, MO) was used as the standard. The C-terminal peptides derived from Rpt2, Rpt3, Rpt5 and Rpt6 were synthesized (standard solid-phase peptide chemistry) and purified to at least 98% purity by GenScript (Piscataway, NJ). The TAT peptides, Rpt peptides (except Rpt6) and the peptide substrates were dissolved in anhydrous dimethylsulfoxide (DMSO; Sigma-Aldrich, St. Louis, MO) and such stock solutions were stored at −20 °C. The total concentration of DMSO in final reaction mixtures never exceeded 3% (vol/vol). The Trp (tryptophan) -containing Rpt6 peptide was dissolved in ultrapure water and stored at −20 °C, protected from light. […]

[3] = molecular target: T1, human latent 20S core proteasome, chymotrypsin-like (ChT-L) activity (Homo sapiens, UniProt P25787+P60900); experiment: ChT-L peptidase activity of latent 20S proteasome (Suc-LLVY-AMC); format: biochemical; conditions: for Max Activation Fold ± SE: purified latent 20S, Tris/HCl pH 8, 50 μM Suc-LLVY-AMC, 37 °C, from fitted response curves, SEM
T1 construct: Human housekeeping core (20S) proteasome purified from erythrocytes; purchased Boston Biochem, Inc. or Enzo Life Sciences, Inc; host or cells: human erythrocytes (natural source)
Procedure: The stock proteasome was diluted to 0.2 mg/mL working solution in “dilution buffer” (50 mM Tris/HCl, pH 8, 20% glycerol). […] The substrates were used at concentration of 50 μM (ChT-L) or 100 μM (T-L, PGPH). […] The total concentration of DMSO in final reaction mixtures never exceeded 3% (vol/vol). […] The reaction was carried out in 96-well plates, in 100 μL of reaction mixture that consisted of 45 mM Tris/HCl, pH 8, 100 mM KCl, 1 mM EDTA (reaction buffer) and a fluorogenic peptide substrate, to which 200 ng (nearly […]) of proteasome were added. […] The proteasome was preincubated with a substrate for 10 min at room temperature, then 1 μL of DMSO or a desired concentration of a TAT peptide in 1 μL of DMSO were added. […] To test the competition with Rpt derived peptides, the Rpt peptide (1 μM) was added before the TAT peptide to the reaction mixture. The reaction rates were calculated from a linear segment of kinetic curves constructed from measurements in 1-min intervals.
A two-tailed t-test was applied to compare the means. The comparisons were allowing for unequal variances with a Welch correction. Abundance of proteasome conformers was compared with the chi squared test and two-sample proportion test. A significance level was set at 0.05. […] Reaction rates were calculated from a smoothed linear segment of kinetic traces using OriginPro 2019. Response curves (activity vs. compound concentration) were fitted with a nonlinear fitting application of OriginPro 2019. The AC50 and maximum activation fold was calculated based on the equations implemented to fit the response curves.

SMILES | Proteasome ChT-L activity in lysates of treated cells versus control lysates (in words) ([1]; SK-N-SH cells, 1 µM peptide, 24 h, 1 μg lysate, 50 μM Suc-LLVY-AMC, n = 3–4) | Competition with Rpt tail peptides (in words, from radar plot scores) [2] | Enhanced (synergistic) activation with Rpt tail peptides (in words) [2] | Max Activation Fold ± SE [3] [fold] | Ability to activate ChT-L activity of latent 20S (in words) ([3]; titration, latent human 20S, Suc-LLVY-AMC, n = 3–8) | Abolition of ChT-L activity in cell lysates ([1]; 1 µM bortezomib added to lysates from control and TAT-exposed SK-N-SH cells) [%]
N=C(N)NCCC[C@H](NC(=O)CN)C(=O)N[C@@H](CCCCN)C(=O)N[C@@H](CCCCN)C(=O)N[C@@H](CCCNC(=N)N)C(=O)N[C@@H](CCCNC(=N)N)C(=O)N[C@@H](CCC(N)=O)C(=O)N[C@@H](CCCNC(=N)N)C(=O)N[C@@H](CCCNC(=N)N)C(=O)N[C@@H](CCCNC(=N)N)C(=O)N1CCC[C@H]1C(=O)N[C@@H](CO)C(=O)O [(1)] | lack of significant activation | added a weakly negative score for the Rpt2 tail to the presumed major competitor Rpt3 | enhanced activation in the presence of one of Rpt tails, namely Rpt5 or Rpt6 |  |  | 
NCCCC[C@H](NC(=O)[C@H](CCCCN)NC(=O)[C@H](CCCCN)NC(=O)[C@@H]1C[C@@H]2CCCC[C@@H]2N1C(=O)[C@@H]1Cc2ccccc2CN1C(=O)[C@H](CCCCN)NC(=O)[C@H](CCCCN)NC(=O)[C@@H](N)CCCCN)C(=O)O [(6)] |  | Rpt2 tail was a major competitor | enhanced activation in the presence of one of Rpt tails, namely Rpt5 or Rpt6 |  |  | 
N=C(N)NCCC[C@H](NC(=O)CN)C(=O)N[C@@H](CCCCN)C(=O)N1Cc2ccccc2C[C@H]1C(=O)N1[C@H](C(=O)N[C@@H](CCCNC(=N)N)C(=O)N[C@@H](CCC(N)=O)C(=O)N2Cc3ccccc3C[C@H]2C(=O)N2[C@@H](C(=O)N[C@@H](CCCNC(=N)N)C(=O)N3CCC[C@H]3C(=O)N[C@@H](CO)C(=O)O)C[C@H]3CCCC[C@H]32)C[C@@H]2CCCC[C@@H]21 [(2)] (H-GRK[Tic][Oic]RQ[Tic][dOic]RPS-OH; N-terminus and C-terminus assumed) |  | competing with Rpt2, Rpt3, and Rpt5 tails | synergy was especially pronounced for the Rpt6-(2) pair | 1.5 ± 0.26 | very poor activator | 
N=C(N)NCCC[C@H](NC(=O)CN)C(=O)N[C@@H](CCCCN)C(=O)N1Cc2ccccc2C[C@H]1C(=O)N1[C@H](C(=O)N[C@@H](CCCNC(=N)N)C(=O)N[C@@H](CCC(N)=O)C(=O)N[C@@H](CCCNC(=N)N)C(=O)N[C@@H](CCCNC(=N)N)C(=O)N[C@@H](CCCNC(=N)N)C(=O)N2CCC[C@H]2C(=O)N[C@@H](CO)C(=O)O)C[C@@H]2CCCC[C@@H]21 [(3)] (H-GRK[Tic][Oic]RQRRRPS-OH; N-terminus and C-terminus assumed) |  |  |  | 3.3 ± 0.23 |  | 
CC(C)C[C@H](NC(=O)[C@H](Cc1ccccc1)NC(=O)c1cnccn1)B(O)O [bortezomib, reference compound] |  |  |  |  |  | > 85
